Test results reported in US20070149446A1, “Tamandarin analogs and fragments thereof and methods of making and using” (The Trustees of the University of Pennsylvania Center for …, priority 2003, published 2007).
Where two headings read alike, the source gives them in different places.

How the values were obtained:
[1] = from COc1ccc(C[C@@H](C(=O)O[C@H](C)[C@H](NC(=O)OC(C)(C)C)C(=O)O)N(C)C(=O)[C@@H]2CCCN2C(=O)[C@H](CC(C)C)NC(=O)[C@@H](OC(=O)C[C@H](O[Si](C(C)C)(C(C)C)C(C)C)[C@H](N)C(C)C)C(C)C)cc1; amide bond; HATU/DIEA; DMF; 10.0 mM; 25.0 °C; 17.0 h; 3 steps
[2] = amide bond, 21-membered ring, HATU/NMM, CH3CN, 0.0 °C

## COc1ccc(C[C@H]2C(=O)O[C@H](C)[C@H](NC(=O)OC(C)(C)C)C(=O)N[C@H](C(C)C)[C@@H](O[Si](C(C)C)(C(C)C)C(C)C)CC(=O)O[C@@H](C(C)C)C(=O)N[C@@H](CC(C)C)C(=O)N3CCC[C@H]3C(=O)N2C)cc1
[1]
  ring closure, yield of all isomers: 19%

## [2-Naphthylala^5]-Tamandarin B macrocycle
[2]; 5.0 mM
  ring closure, isolated yield: 65%

## [Ala^4]-Tamandarin B macrocycle
[2]; 4.6 mM
  ring closure, isolated yield: 60%

## [N-Me-Ala^4]-Tamandarin B macrocycle
[2]; 4.8 mM
  ring closure, isolated yield: 48%

## [Ser^6]-Tamandarin B macrocycle
[2]; 5.7 mM
  ring closure, isolated yield: 89%
